Tests used:
[1] = target: T1, GDP-loaded KRAS (1-169) G12C, C51S, C80L, C118S (Homo sapiens, UniProt P01116, C118S/C51S/C80L/G12C); assay: Mass Spectrometry Reactivity Assay (MSRA): covalent adduct of compound and KRAS G12C, Percent Modification; type: binding; settings: for MSRA (% modification) 10 μM 0.50 hr / MSRA (% modification) 10 μM 0.25 hr: 10 μM compound
T1 construct: GDP-loaded KRAS (1-169) G12C, C51S, C80L, C118S
In short: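 Covalent labelling is measured by intact mass: deconvoluted modified and unmodified peak intensities yield percent modification. Compound, usually 5 μM or 10 μM final, reacts at room temperature with 5 μM GDP-bound KRAS G12C (1-169, C51S/C80L/C118S) in Hepes pH 7.5/NaCl/glycerol, sampled at 1, 15, 30, 60 min.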

KRAS G12C = KRAS G12C (Homo sapiens, UniProt P01116, G12C); assay: Cell Activity Assay: accumulation of GDP-bound KRAS G12C in MIAPaCa-2 cells (Raf-1 RBD capture, MSD readout); type: cell-based; design: endogenous in cells; host or cells: MIAPaCa-2; settings: 6 hours, assay limit is 30.00
In short: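 IC50 came from a 4-parameter fit of Ras signal normalized between DMSO and full-inhibition controls. Readout: lysate GTP-Ras bound to immobilized Raf-1 RBD, quantified with pan-Ras antibody and MSD electrochemiluminescence. Lysates derived from MIAPaCa-2 cells treated 6 h with serially diluted compound, 0.3% DMSO.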

Compound	MSRA (% modification) 10 μM 0.50 hr [1]	IC50 (KRAS G12C)	MSRA (% modification) 5.0 μM 0.017 hr ([1]; 5.0 μM compound)	MSRA (% modification) 5.0 μM 0.25 hr ([1]; 5.0 μM compound, 0.25 hr)	MSRA (% modification) 10 μM 0.25 hr ([1]; 0.25 hr)
C=CC(=O)N1CCN(c2ncnc3c(Oc4c(Cl)c(F)cc5[nH]ncc45)nc(C#N)cc23)CC1 [Example 32A, 4-(4-acryloylpiperazin-1-yl)-8-[(5-chloro-6-fluoro-1H-indazol-4-yl)oxy]pyrido[3,4-d]pyrimidine-6-carbonitrile]	74%	0.681 µM			
C=CC(=O)N1CCN(c2ncnc3c(Oc4c(C)c(Cl)cc5[nH]ncc45)nc(C#N)cc23)C[C@@H]1C [Example 33A, 4-[(3S)-4-acryloyl-3-methylpiperazin-1-yl]-8-[(6-chloro-5-methyl-1H-indazol-4-yl)oxy]pyrido[3,4-d]pyrimidine-6-carbonitrile]	34%	> 30 µM			
C=CC(=O)N1CCN(c2nc(O[C@@H]3CN(C)C[C@H]3OC)nc3c(Oc4c(Cl)c(F)cc5[nH]ncc45)nccc23)[C@@H](C)C1 [Example 33I, 1-[(3S)-4-(8-[(5-chloro-6-fluoro-1H-indazol-4-yl)oxy]-2-{[(3R,4R)-4-methoxy-1-methyl-pyrrolidin-3-yl]oxy}pyrido [3,4-d]pyrimidin-4-yl)-3-methyl-piperazin-1-yl]prop-2-en-1-one]		0.039 µM	74%		
C=CC(=O)N1CCN(c2ncnc3c(Oc4c(F)c(Cl)cc5[nH]ncc45)nc(Cl)cc23)CC1 [Example 34A, 1-(4-{6-chloro-8-[(6-chloro-5-fluoro-1H-indazol-4-yl)oxy]pyrido[3,4-d]pyrimidin-4-yl}piperazin-1-yl)prop-2-en-1-one]		1.29 µM		19%	47%
C=CC(=O)N1CCN(c2nc(O[C@@H]3CN(C)C[C@H]3OC)nc3c(Oc4c(Cl)c(F)cc5[nH]ncc45)nccc23)[C@H](C)C1 [Example 34I, 1-[(3R)-4-(8-[(5-chloro-6-fluoro-1H-indazol-4-yl)oxy]-2-{[(3R,4R)-4-methoxy-1-methyl-pyrrolidin-3-yl]oxy}pyrido [3,4-d]pyrimidin-4-yl)-3-methyl-piperazin-1-yl]prop-2-en-1-one]		0.935 µM	52%		
C=CC(=O)N1C[C@H](C)N(c2ncnc3c(Oc4c(Cl)c(F)cc5[nH]ncc45)nc(Cl)cc23)C[C@H]1C [Example 35A, 1-[(2R,5S)-4-{6-chloro-8-[(5-chloro-6-fluoro-1H-indazol-4-yl)oxy]pyrido[3,4-d]pyrimidin-4-yl}-2,5-dimethylpiperazin-1-yl]prop-2-en-1-one]		4.26 µM			64%
C=CC(=O)N1CCN(c2nc(O[C@@H]3CN(C)C[C@H]3OC)nc3c(Oc4c(C)ccc5[nH]ncc45)nc(Cl)cc23)CC1 [Example 35G, 1-[4-(6-chloro-2-{[(3R,4R)-4-methoxy-1-methylpyrrolidin-3-yl]oxy}-8-[(5-methyl-1H-indazol-4-yl)oxy]pyrido[3,4-d]pyrimidin-4-yl)piperazin-1-yl]prop-2-en-1-one]		0.027 µM	75%		
C=CC(=O)N1CCN(c2nc(O[C@@H]3CN(C)C[C@H]3OC)nc3c(Oc4c(Cl)c(F)cc5[nH]ncc45)nccc23)C[C@H]1C [Example 35I, 1-[(2R)-4-(8-[(5-chloro-6-fluoro-1H-indazol-4-yl)oxy]-2-{[(3R,4R)-4-methoxy-1-methyl-pyrrolidin-3-yl]oxy}pyrido [3,4-d]pyrimidin-4-yl)-2-methyl-piperazin-1-yl]prop-2-en-1-one]		0.155 µM	24%		
C=CC(=O)N1CCN(c2ncnc3c(Oc4c(Cl)c(F)cc5[nH]ncc45)nc(Cl)cc23)C[C@@H]1C [Example 36A, 1-[(2S)-4-{6-chloro-8-[(5-chloro-6-fluoro-1H-indazol-4-yl)oxy]pyrido[3,4-d]pyrimidin-4-yl}-2-methylpiperazin-1-yl]prop-2-en-1-one]		4.7 µM			31%
C=CC(=O)N1CCN(c2nc(OC3CN(C)CC34CC4)nc3c(Oc4c(Cl)c(F)cc5[nH]ncc45)nc(Cl)cc23)CC1 (stereo not shown) [Example 36G, 1-(4-{6-chloro-8-[(5-chloro-6-fluoro-1H-indazol-4-yl)oxy]-2-[(5-methyl-5-azaspiro[2.4]heptan-7-yl)oxy]pyrido[3,4-d]pyrimidin-4-yl}piperazin-1-yl)prop-2-en-1-one]		0.109 µM	35%		
C=CC(=O)N1CCN(c2ncnc3c(Oc4c(Cl)c(F)cc5[nH]ncc45)nc(Cl)cc23)C[C@H]1C [Example 37A, 1-[(2R)-4-{6-chloro-8-[(5-chloro-6-fluoro-1H-indazol-4-yl)oxy]pyrido[3,4-d]pyrimidin-4-yl}-2-methylpiperazin-1-yl]prop-2-en-1-one]		0.622 µM			63%
C=CC(=O)N1CCN(c2nc(O[C@@H]3CN(C)C[C@H]3O)nc3c(Oc4c(Cl)c(F)cc5[nH]ncc45)nc(Cl)cc23)CC1 [Example 37G, 1-[4-(6-chloro-8-[(5-chloro-6-fluoro-1H-indazol-4-yl)oxy]-2-{[(3R,4R)-4-hydroxy-1-methylpyrrolidin-3-yl]oxy}pyrido[3,4-d]pyrimidin-4-yl)piperazin-1-yl]prop-2-en-1-one]		0.338 µM	37%		
C=CC(=O)N1CCN(c2ncnc3c(Oc4c(Cl)c(F)cc5[nH]ncc45)nc(Cl)cc23)[C@@H](CO)C1 [Example 38A, 1-[(3R)-4-{6-chloro-8-[(5-chloro-6-fluoro-1H-indazol-4-yl)oxy]pyrido[3,4-d]pyrimidin-4-yl}-3-(hydroxymethyl)piperazin-1-yl]prop-2-en-1-one]		0.537 µM			56%
C=CC(=O)N1CCN(c2nc(O[C@@H]3CN(C)C[C@H]3OC)nc3c(Oc4c(Cl)ccc5[nH]ncc45)nc(Cl)cc23)CC1 [Example 38G, 1-[4-(6-chloro-8-[(5-chloro-1H-indazol-4-yl)oxy]-2-{[(3R,4R)-4-methoxy-1-methylpyrrolidin-3-yl]oxy}pyrido[3,4-d]pyrimidin-4-yl)piperazin-1-yl]prop-2-en-1-one]		0.021 µM	75%		
C=CC(=O)N1CCN(c2nc(Oc3cccc4c3CCN(C)C4)nc3c(Oc4c(C)ccc5[nH]ncc45)nccc23)CC1 [Example 38I, 1-(4-{8-[(5-methyl-1H-indazol-4-yl)oxy]-2-[(2-methyl-1,2,3,4-tetrahydro-isoquinolin-5-yl)oxy]pyrido [3,4-d]pyrimidin-4-yl}piperazin-1-yl)prop-2-en-1-one]		0.055 µM	55%		

The next lines start with the values.

MSRA (% modification) 10 μM 0.50 hr [1]	IC50 (KRAS G12C)	MSRA (% modification) 5.0 μM 0.017 hr ([1]; 5.0 μM compound)	MSRA (% modification) 5.0 μM 0.25 hr ([1]; 5.0 μM compound, 0.25 hr)	MSRA (% modification) 10 μM 0.25 hr ([1]; 0.25 hr)	Compound
	0.246 µM			74%	C=CC(=O)N1CCN(c2ncnc3c(Oc4c(Cl)c(F)cc5[nH]ncc45)nc(Cl)cc23)[C@@H](C)C1 [Example 39A, 1-[(3S)-4-{6-chloro-8-[(5-chloro-6-fluoro-1H-indazol-4-yl)oxy]pyrido[3,4-d]pyrimidin-4-yl}-3-methylpiperazin-1-yl]prop-2-en-1-one]
	0.014 µM	76%			C#CCCN1C[C@@H](OC)[C@H](Oc2nc(N3CCN(C(=O)C=C)CC3)c3cc(Cl)nc(Oc4c(Cl)c(F)cc5[nH]ncc45)c3n2)C1 [Example 39G, 1-[4-(2-{[(3R,4R)-1-(but-3-yn-1-yl)-4-methoxypyrrolidin-3-yl]oxy}-6-chloro-8-[(5-chloro-6-fluoro-1H-indazol-4-yl)oxy]pyrido[3,4-d]pyrimidin-4-yl)piperazin-1-yl]prop-2-en-1-one]
	20.9 µM			6%	C=CC(=O)N1CCN(c2ncnc3c(Oc4c(Cl)c(F)cc5[nH]ncc45)nc(Cl)cc23)[C@H](C)C1 [Example 40A, 1-[(3R)-4-{6-chloro-8-[(5-chloro-6-fluoro-1H-indazol-4-yl)oxy]pyrido[3,4-d]pyrimidin-4-yl}-3-methylpiperazin-1-yl]prop-2-en-1-one]
	0.008 µM	83%			C#CCN1C[C@@H](OC)[C@H](Oc2nc(N3CCN(C(=O)C=C)CC3)c3cc(Cl)nc(Oc4c(Cl)c(F)cc5[nH]ncc45)c3n2)C1 [Example 40G, 1-[4-(6-chloro-8-[(5-chloro-6-fluoro-1H-indazol-4-yl)oxy]-2-{[(3R,4R)-4-methoxy-1-(prop-2-yn-1-yl)pyrrolidin-3-yl]oxy}pyrido[3,4-d]pyrimidin-4-yl)piperazin-1-yl]prop-2-en-1-one]
	0.02 µM	68%			C=CC(=O)N1CCN(c2nc(O[C@@H]3CN(C)C[C@H]3OC)nc3c(Oc4c(C)c(Cl)cc5[nH]ncc45)nccc23)CC1 [Example 40I, 1-[4-(8-[(6-chloro-5-methyl-1H-indazol-4-yl)oxy]-2-{[(3R,4R)-4-methoxy-1-methyl-pyrrolidin-3-yl]oxy}pyrido [3,4-d]pyrimidin-4-yl)piperazin-1-yl]prop-2-en-1-one]
	3.5 µM			31%	C=CC(=O)N1CCN(c2ncnc3c(Oc4c(Cl)c(F)cc5[nH]ncc45)nc(N)cc23)CC1 [Example 41A, 1-(4-{6-amino-8-[(5-chloro-6-fluoro-1H-indazol-4-yl)oxy]pyrido[3,4-d]pyrimidin-4-yl}piperazin-1-yl)prop-2-en-1-one]

From patent US10662204B2 (PFIZER INC., priority 2018, dated 2020)
